From patent US20250367283A1, “MEVALONATE PATHWAY INHIBITOR AS HIGHLY-EFFICIENT VACCINE ADJUVANT” (Tsinghua University, priority 2015, published 2025)
Like-named read-outs stand apart in the source and are kept apart here.

How the values were obtained:
[1] = tested on: anti-OVA IgM and IgG antibodies; test: OVA evaluation system: adjuvant activity in antibody titer in mice; assay type: in vivo; conditions: for IgM and IgG antibody titers vs PBS or DMSO control / adjuvant effect among statin drugs: statins with OVA, soles injection; for IgM and IgG antibody titers vs PBS or DMSO control: Day 7 and Day 14
Protocol: OVA evaluation system was used to determine adjuvant activity in antibody titer.
Mice of C57B/6 strain were used. The mice in the experimental group were injected with the obtained mixture of each of the statins and OVA antigen through soles injection, with 20 μl for each mouse. The mice in the control group were injected with a 1:1 mixture of PBS or DMSO (10 μl) and 10 μl OVA antigen (PBS or DMSO is 10 μl, respectively, and the antigen is 10 μl) through soles injection, with 20 μl for each mouse. On Day 7 and Day 14 after immunization, blood was taken from the mice's orbits, with 100 μl was taken from each mouse. The obtained blood was left at 4° C. overnight, and centrifuged at 6000 rpm for 8 min. The supernatant serum was removed and the titers of anti-OVA IgM and IgG antibodies in the serum were determined.
Test of the OVA antibody titer: The OVA protein was diluted to a concentration of 2 μg/ml with a carbonate solution of pH 9.6, coated in a 96-well ELISA plate at 50 μl per well, and left at 4° C. overnight. The ELISA plate was washed five times with PBS containing 0.05% Tween 20, blocked with 1% BSA solution at 200 μl per well, and incubated at room temperature for 2 h. The ELISA plate was washed five times with PBST (Phosphate Buffered Saline with Tween), a 2-fold serial dilution of the mouse serum after immunized with OVA was added at 50 μl per well and incubated at room temperature for 2 h. After the ELISA plate was washed five times with PBST, HRP (horseradish peroxidase)-labeled goat-anti-mouse IgM or IgG antibody was added and incubated at room temperature for 45 min. The ELISA plate was washed five times with PBST, and a color developing solution of sodium citrate OPD (o-phenylenediamine) was added. After 10 min of color development in the dark, sulfuric acid was added to terminate the reaction. The reading was performed with ELIASA OD490. The maximum serum dilution factor, when the ratio of light absorptions of the experimental group to the control group was >2.0, was the titer of the anti-OVA antibody in the serum.
Each test compound was formulated at a concentration of 2 mg/ml and the concentration of OVA antigen was 2 mg/ml. Each compound was mixed with OVA at 1:1. Each C57B/6 mouse in the experimental group was injected with 100 μl of the mixture (containing 50 μl of the antigen and 50 μl of the compound) by intramuscular injection at the right thigh. On Day 7 and Day 14 after immunization, blood was taken from the mice's orbit, and 100 μl was taken for each mouse. The obtained blood was allowed to stand at 4° C. overnight, and centrifuged at 6000 rpm for 8 min. The supernatant serum was removed, and the titers of anti-OVA IgM and IgG antibodies in the serum were determined.
Method: each of the test compounds (the 10 bisphosphonates as described above) was mixed with the OVE antigen at 1:1, and the concentrations of bisphosphonic acid and OVA were both 10 mg/ml. Mice of C57B/6 strain were used. The mice in the experimental group were injected with the mixture of each of the test compounds and OVA antigen through soles injection, with 20 μl for each mouse, and wherein the amounts of OVA antigen and each of the test compounds were both 100 ug. The mice in the control group were injected with a 1:1 mixture of […] and 10 μl OVA antigen through sole injection. On Day 7 and Day 14 after immunization, blood was taken from the mice's orbits, and 100 μl was taken from each mouse.
The obtained blood was left at 4° C. overnight, and centrifuged at 6000 rpm for 8 min. The supernatant serum was removed, and the titers of anti-OVA IgM and IgG antibodies in the serum were determined.
Method: TH-Z144 and TH-Z145 were prepared at the concentration of 10 mg/ml, the concentration of OVA antigen was also 10 mg/ml, and the compound and the antigen were mixed at 1:1. Mice of C57B/6 strain were used.

[2] = tested on: PvGGPPS (geranylgeranyl pyrophosphate synthase from Plasmodium); test: In vitro PvGGPPS enzymatic activity assay; assay type: biochemical; conditions: GPP and IPP substrates
Protocol: PvGGPPs with 6 consecutive His at the N-terminus was induced to express in vitro, collected, and purified by Ni column. In vitro PvGGPPs enzymatic activity assay was performed in a 96-well plate at 200 μl of solution per well. The buffer of the system was 25 mM HEPES, 2.5 mM MgCl2, pH 7.4. Using GPP and IPP as reaction substrates, a 360 nm continuous spectrophotometric detection was performed in a phosphate lyase system. ORIGIN 8.0 software was used to plot and fit.

[3] = target: humanized farnesyl pyrophosphate synthase (HsFPPS) (Homo sapiens (Human), UniProt P14324); test: In vitro HsFPPS enzyme activity assay; assay type: biochemical
Sequence of humanized farnesyl pyrophosphate synthase (HsFPPS) (P14324 whole entry, looked up): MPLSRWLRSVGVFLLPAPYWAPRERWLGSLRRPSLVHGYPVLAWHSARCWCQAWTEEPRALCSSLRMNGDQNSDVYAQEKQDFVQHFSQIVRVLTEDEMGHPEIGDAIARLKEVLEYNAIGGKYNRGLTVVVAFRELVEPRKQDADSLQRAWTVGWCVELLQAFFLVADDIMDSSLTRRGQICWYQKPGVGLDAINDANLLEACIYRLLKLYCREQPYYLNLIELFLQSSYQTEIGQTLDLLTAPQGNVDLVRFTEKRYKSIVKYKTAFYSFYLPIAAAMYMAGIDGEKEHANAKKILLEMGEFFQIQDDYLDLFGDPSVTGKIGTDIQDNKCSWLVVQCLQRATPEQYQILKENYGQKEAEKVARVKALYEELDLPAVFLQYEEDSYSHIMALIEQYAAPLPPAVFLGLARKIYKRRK
Protocol: The measurement method is briefly described as follows: the expression of HsFPPS with 6 consecutive His at the N-terminus was induced in vitro, collected, and purified by Ni column. An in vitro HsFPPS enzyme activity assay was performed in a 96-well plate with 200 μl of solution per well. The buffer of the system was 25 mM HEPES, 2.5 mM MgCl2, pH 7.4. Using DMAPP and IPP as reaction substrates, the change of the UV value at a wavelength of 360 nm was monitored in real time in a phosphate lyase system. The ORIGIN 8.0 software was used to plot and fit. The IC50 values for the inhibition of FPPS by the TH-Z80 series of compounds were shown in the following table, in micromoles per liter (μM).
HsFPPs with 6 consecutive His at the N-terminus was induced to express in vitro, collected, and purified by Ni column. In vitro HsFPPs enzymatic activity assay was performed in a 96-well plate at 200 μl of solution per well. The buffer of the system was 25 mM HEPES, 2.5 mM MgCl2, pH 7.4. Using DMAPP and IPP as reaction substrates, the changes of UV at 360 nm were monitored in real-time in phosphate lyase system. ORIGIN 8.0 software was used to plot and fit.

[4] = tested on: Plasmodium falciparum 3D7; test: Test of plasmodium activity (SYBR-GREEN1); assay type: cell-based; conditions: infected erythrocytes, 72 hours; read-out: Malaria (IC50/μM)
Protocol: Plasmodium falciparum 3D7 was cultured with […] medium mixed with 10% human O-type blood serum and 25 mM HEPES. The cultivation process was maintained in a carbon dioxide incubator under 5% carbon dioxide. In vitro drug testing experiments were performed on a 96-well plate. The test drug was dissolved in PBS and pre-diluted with complete medium. Infected erythrocytes were cultured in triplicate for 72 hours in 3-fold serial dilutions of drug. Then an equal amount of SYBR-GREEN1 was added to each well. The detection was then performed at 485 nm for excitation light and 538 nm for emitted light. […] ORIGIN 8.0 software was used to plot and fit.

[5] = tested on: MDA-MB-231 cells; test: MDA-MB-231 proliferation MTT test; assay type: cell-based, human; conditions: 72 hours
Protocol: • Drug dissolution: […] The prepared bisphosphonate stock solution was diluted with DMEM complete medium. The maximum concentration was 1 mM. The dilution was performed serially in a ratio of 1:3.2 with a total of 11 concentration gradients; a. MDA-MB-231 cells were digested the day before. Centrifugation was performed at 1000 rmp for 3 min. The cells were counted. The cells were seeded into a 96-well plate at 3000 cells/well in a volume of 100 μl per well and cultured for 14-16 h. It should be noted that the cell count should be accurate, and the amount of cells seeded per well should be consistent. The cell suspension can be gently shaken in the intermittence of plating, or a row of cells were plated and the cell suspension was pipetted gently with a pipette. The speed of pipetting into the 96-well plate with a pipette should not be too fast or too slow, in order to avoid uneven distribution of cells in the plate, affecting the experiments; the wells at the fringe of the 96-well plate will evaporate slightly faster and the concentration of the solution will change slightly faster. Under normal situation, the central 60 wells should be selected for stimulation. Also, the pipetted liquid should be prevented from creating bubbles. b. After the cells had adhered, the liquid in the 96-well plate was pipetted out and discarded. […] c. 72 hours after the action of drug, the prepared MTT solution (immediately before use, a certain amount of MTT powder was weighed and dissolved in PBS at 5 mg/ml, under dark, filter with 0.22 filter membrane) was added directly to each well with 20 μl per well and continued to culture for 4 hours; d. The filter paper (which can be replaced by an absorbent paper) was laid, and the plate was inverted gently (be careful to prevent the crystal in the well from dropping). After the liquid in the wells was removed, 150 μl of DMSO was added to dissolve the crystals, and the mixture was shaken thoroughly with a shaker for a period of time just to dissolve the crystals. The absorbance (OD value) of each well was measured at 570 nm with ELIASA. The mean value of blank control was calculated as OD Blank. OD value for each well=OD measured-OD Blank. ODNT mean value was calculated. […] Mean and standard error were then calculated. The mean and standard error of each group of drug concentration (uM) and corresponding drug inhibition rate were fitted by Graph Prism software to obtain the IC50 of the drug.

[6] = Example 15 table, read-out: HsFPPS (IC50/μM)
[7] = TH-Z80 series, DMAPP and IPP substrates, pH 7.4, read-out: IC50 for inhibition of FPPS
[8] = o-aminopyridine bisphosphonic acid compounds, read-out: IC50 (inhibition of FPPS)

With CC(=C\C(=O)O)/C=C(\C)C[C@H](C)CCCC[C@H]1OC(=O)[C@@H]1CO [Hymeglusin, 11-[3R-(hydroxymethyl)-4-oxo-2R-oxetanyl]-3,5,7R-trimethyl-2E,4E-undecadienoic acid, reference compound] the “IgG antibody titer vs PBS control” value ([1]; 100 μg, intramuscular, fourteen days after immunization) was “significantly higher titers”.

With O=P(O)(O)C(O)(Cn1cnc2cc(OCl)ccc21)P(=O)(O)O [II-7] the IC50 [2] was 0.82 µM, the IC50 [3, 6] was 0.16 µM and the IC50 [4] was 0.69 µM.

O=P([O-])([O-])C(CCCc1cccc(Oc2ccccc2)c1)S(=O)(=O)[O-].[K+].[K+].[K+] (stereo not shown) [TH-Z66, reference compound] was tested, and the “IgG antibody titer vs control group” value ([1]; 7 days after immunization) was “lower than those in mice in the control group”, the adjuvant effect ([1]; SQS inhibitor) was “does not have an adjuvant effect” and the “IgG and IgM antibody titers vs PBS control” value ([1]; SQS inhibitor 100 μg with OVA, sole) was “did not differ significantly”.

COc1ccc2c(c1)ncn2CC(O)(P(=O)(O)O)P(=O)(O)O [TH-Z79] gave an IC50 [2] of 0.61 µM, an IC50 [5] of 50900 nM and an IC50 [3, 6] of 0.1 to 0.3 µM. For the same molecule, the IC50 [3, 7] was 0.1 to 0.3 µM and the IC50 [4] was 0.96 µM.

CCCCCCOc1ccn2c(CC(O)(P(=O)(O)O)P(=O)(O)O)cnc2c1 [TH-Z97, (1-hydroxy-2-(7-n-hexyloxyimidazo[1,2-a]pyridin-3-yl)ethane-1,1-diyl)bisphosphonic acid] was tested, and the IC50 [3] was 0.06 µM and the “IgG antibody titer vs PBS control” value ([1]; Day 7 and Day 14, OVA) was “significantly higher titers”.

O=P(O)(O)C(Nc1cc(OCc2ccccc2)ccn1)P(=O)(O)O [TH-Z106] was tested, and the IC50 [3, 8] was 0.108 µM.

Molecule O=P(O)(O)C(Nc1cc(-n2cc3c(n2)CCCC3)ccn1)P(=O)(O)O [TH-Z108] has an IC50 [3, 8] of 0.112 µM.

NC(=O)c1cc(COc2ccnc(NC(P(=O)(O)O)P(=O)(O)O)c2)ccn1 [TH-Z109] was tested, and the IC50 [3, 8] was 0.643 µM.

CCOc1ccc2c(c1)ncn2CC(O)(P(=O)(O)O)P(=O)(O)O [TH-Z148] showed an IC50 [2] of 0.56 µM, an IC50 [5] of 7300 nM and an IC50 [3, 6] of 0.068 µM. It also gave an IC50 [3, 7] of 0.068 µM and an IC50 [4] of 1.86 µM.

CCCOc1ccc2c(c1)ncn2CC(O)(P(=O)(O)O)P(=O)(O)O [TH-Z149] gave an IC50 [2] of 0.47 µM, an IC50 [5] of 36100 nM and an IC50 [3, 6] of 0.27 µM. For the same molecule, the IC50 [3, 7] was 0.27 µM and the IC50 [4] was 0.92 µM.

With CCCCOc1ccc2c(c1)ncn2CC(O)(P(=O)(O)O)P(=O)(O)O [TH-Z150] the IC50 [2] was 0.28 µM, the IC50 [5] was 128000 nM and the IC50 [3, 6] was 0.14 µM. It also gave an IC50 [3, 7] of 0.14 µM and an IC50 [4] of 0.78 µM.

In the case of CCCCCCCCCCCCOc1ccc2c(c1)ncn2CC(O)(P(=O)(O)O)P(=O)(O)O [TH-Z154], the IC50 [2] is reported as 5.16 µM, the IC50 [3, 6] is reported as over 5 µM and the IC50 [3, 7] is reported as over 5 µM. It also gave an IC50 [4] of 0.75 µM.

For CC(C)n1c(/C=C/C(O)CC(O)CC(=O)O)c(-c2ccc(F)cc2)c2ccccc21 (stereo not shown) [fluvastatin, reference compound], the “IgM and IgG antibody titers vs PBS or DMSO control” value [1] was “significantly higher titers”.

CC[C@H](C)C(=O)O[C@H]1C[C@@H](C)C=C2C=C[C@H](C)[C@H](CC[C@@H]3C[C@@H](O)CC(=O)O3)[C@H]21 [lovastatin, reference compound] was tested, and the “adjuvant effect among statin drugs” value [1] was “most significant adjuvant effects” and the “IgM and IgG antibody titers vs PBS or DMSO control” value [1] was “significantly higher titers”.

With CC[C@H](C)C(=O)O[C@H]1CCC=C2C=C[C@H](C)[C@H](CC[C@@H]3C[C@@H](O)CC(=O)O3)[C@H]21 [mevastatin, reference compound] the “adjuvant effect among statin drugs” value [1] was “most significant adjuvant effects” and the “IgM and IgG antibody titers vs PBS or DMSO control” value [1] was “significantly higher titers”.

For O=C(O)C[C@H](O)C[C@H](O)/C=C/c1c(C2CC2)nc2ccccc2c1-c1ccc(F)cc1 [pitavastatin, reference compound], the “IgM and IgG antibody titers vs PBS or DMSO control” value [1] was “significantly higher titers”.

For CC(C)c1nc(N(C)S(C)(=O)=O)nc(-c2ccc(F)cc2)c1/C=C/[C@@H](O)C[C@@H](O)CC(=O)O [rosuvastatin, reference compound], the “IgM and IgG antibody titers vs PBS or DMSO control” value [1] was “significantly higher titers”.
